Patent EP1333824B1, “TREATMENT OF SEXUAL DYSFUNCTION WITH BOMBESIN RECEPTOR ANTAGONISTS” (Warner-Lambert Company LLC, priority 2000, dated 2002)

Target: T1, human GRP receptor (BB2) (Homo sapiens, UniProt P30550)
T1 construct: expressed in transfected cells
Test: BB2 binding assay ([125I][Tyr4]bombesin, CHO-K1 cell membranes)
Conditions: Table 3; N-acyl derivatives
Experimental: In the following experiments, measurement of BB1 and BB2 binding was as follows. […] The final pellet was resuspended in assay buffer to a final cell concentration of 1.5 × 10^5/mL. […] Nonspecific binding was defined by 1µM bombesin. […] Radioactivity bound was determined using a gamma counter.
All competition data was analysed using nonlinear regression utilizing iterative curve-plotting procedures in Prism® (GraphPad Software Inc., San Diego, USA).

T1 sequence (P30550 whole entry): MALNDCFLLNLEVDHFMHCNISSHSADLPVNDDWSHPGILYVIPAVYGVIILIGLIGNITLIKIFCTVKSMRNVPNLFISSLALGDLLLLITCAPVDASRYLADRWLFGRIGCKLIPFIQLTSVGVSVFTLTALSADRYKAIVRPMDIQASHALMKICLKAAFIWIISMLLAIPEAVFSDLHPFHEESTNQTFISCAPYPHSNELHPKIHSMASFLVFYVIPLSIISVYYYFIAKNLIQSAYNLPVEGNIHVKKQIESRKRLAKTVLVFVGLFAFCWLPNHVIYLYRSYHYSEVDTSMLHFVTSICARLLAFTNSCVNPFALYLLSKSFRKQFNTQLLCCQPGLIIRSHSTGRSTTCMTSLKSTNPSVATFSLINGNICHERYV

IC50	Structure (SMILES)
> 10 µM	CN(C)c1ccccc1C(=O)N[C@@](C)(Cc1c[nH]c2ccccc12)C(=O)NCC1(c2ccccn2)CCCCC1 [Example 48, C-Dimethylamino-N-{(S)-2-(1H-indol-3-yl)-1-methyl-1-[(1-pyridin-2-yl-cyclohexyl-methyl)-carbamoyl]-ethyl}-benzamide]
> 10 µM	C[C@@](Cc1c[nH]c2ccccc12)(NC(=O)c1ccccn1)C(=O)NCC1(c2ccccn2)CCCCC1 [Example 57, Pyridine-2-carboxylic acid {(S)-2-(1H-indol-3-yl)-1-methyl-1-[(1-pyridin-2-yl-cyclohexylmethyl)-carbamoyl]-ethyl}-amide]
> 10 µM	C[C@@](Cc1c[nH]c2ccccc12)(NC(=O)c1ccoc1)C(=O)NCC1(c2ccccn2)CCCCC1 [Example 59, Furan-3-carboxylic acid {(S)-2-(1H-indol-3-yl)-1-methyl-1-[(1-pyridin-2-yl-cyclohexylmethyl)-carbamoyl]-ethyl}-amide]
> 10 µM	C[C@@](Cc1c[nH]c2ccccc12)(NC(=O)c1ccco1)C(=O)NCC1(c2ccccn2)CCCCC1 [Example 60, Furan-2-carboxylic acid {(S)-2-(1H-indol-3-yl)-1-methyl-1-[(1-pyridin-2-yl-cyclohexylmethyl)-carbamoyl]-ethyl}-amide]
> 10 µM	Cc1cc(C(=O)N[C@@](C)(Cc2c[nH]c3ccccc23)C(=O)NCC2(c3ccccn3)CCCCC2)no1 [Example 62, 5-Methyl-isoxazole-3-carboxylic acid {(S)-2-(1H-indol-3-yl)-1-methyl-1-[(1-pyridin-2-yl-cyclohexylmethyl)-carbamoyl]-ethyl}-amide]
> 10 µM	C[C@@](Cc1c[nH]c2ccccc12)(NC(=O)c1cnc2ccccc2n1)C(=O)NCC1(c2ccccn2)CCCCC1 [Example 78, Quinoxaline-2-carboxylic acid {(S)-2-(1H-indol-3-yl)-1-methyl-1-[(1-pyridin-2-yl-cyclohexylmethyl)-carbamoyl]-ethyl}-amide]

Same assay, conditions: Table 5; N-terminal urethane derivatives

IC50	Structure (SMILES)
> 10 µM	C[C@@](Cc1c[nH]c2ccccc12)(NC(=O)OCc1ccc(Cl)cc1Cl)C(=O)NCC1(c2ccccn2)CCCCC1 [Example 104, {(S)-2-(1H-Indol-3-yl)-1-methyl-1-[(1-pyridin-2-yl-cyclohexylmethyl)-carbamoyl]-ethyl}-carbamic acid 2,4-dichloro-benzyl ester]
> 10 µM	C[C@@](Cc1c[nH]c2ccccc12)(NC(=O)OCc1ccc2ncccc2c1)C(=O)NCC1(c2ccccn2)CCCCC1 [Example 110, {(S)-2-(1H-Indol-3-yl)-1-methyl-1-[(1-pyridin-2-yl-cyclohexylmethyl)-carbamoyl]-ethyl}-carbamic acid quinolin-6-ylmethyl ester]

Same assay, conditions: Table 7; N-terminal sulfonamide derivatives

IC50	BB2 IC50	Structure (SMILES)
> 10 µM		Cc1ccc(S(=O)(=O)N[C@@](C)(Cc2c[nH]c3ccccc23)C(=O)NCC2(c3ccccn3)CCCCC2)cc1 [Example 112, (S)-3-(1H-Indol-3-yl)-2-methyl-N-(1-pyridin-2-yl-cyclohexylmethyl)-2-(toluene-4-sulfonylamino)-propionamide]
> 10 µM		C[C@@](Cc1c[nH]c2ccccc12)(NS(=O)(=O)c1ccccc1F)C(=O)NCC1(c2ccccn2)CCCCC1 [Example 114, (S)-2-(2-Fluorobenzenesulfonylamino)-3-(1H-indol-3-yl)-2-methyl-N-(1-pyridin-2-yl-cyclohexylmethyl)-propionamide]
> 10 µM		CN(C)c1cccc2c(S(=O)(=O)N[C@@](C)(Cc3c[nH]c4ccccc34)C(=O)NCC3(c4ccccn4)CCCCC3)cccc12 [Example 117, (S)-2-(5-Dimethylamino-naphthalene-1-sulfonylamino)-3-(1H-indol-3-yl)-2-methyl-N-(1-pyridin-2-yl-cyclohexylmethyl)-propionamide]
> 10 µM		C[C@@](Cc1c[nH]c2ccccc12)(NS(=O)(=O)c1ccc2ccccc2c1)C(=O)NCC1(c2ccccn2)CCCCC1 [Example 118, (S)-3-(1H-Indol-3-yl)-2-methyl-2-(naphthalene-2-sulfonylamino)-N-(1-pyridin-2-yl-cyclohexylmethyl)-propionamide]
	Ia	C[C@@](Cc1c[nH]c2ccccc12)(NS(=O)(=O)c1cccs1)C(=O)NCC1(c2ccccn2)CCCCC1 [Example 119, (S)-3-(1H-Indol-3-yl)-2-methyl-N-(1-pyridin-2-yl-cyclohexylmethyl)-2-(thiophene-2-sulfonylamino)-propionamide]
> 10 µM		C[C@@](Cc1c[nH]c2ccccc12)(NS(=O)(=O)c1ccc([N+](=O)[O-])cc1)C(=O)NCC1(c2ccccn2)CCCCC1 [Example 123, (S)-3-(1H-Indol-3-yl)-2-methyl-2-(4-nitro-benzenesulfonylamino)-N-(1-pyridin-2-yl-cyclohexylmethyl)-propionamide]
> 10 µM		C[C@@](Cc1c[nH]c2ccccc12)(NS(=O)(=O)c1ccc(Cl)c(Cl)c1)C(=O)NCC1(c2ccccn2)CCCCC1 [Example 125, (S)-2-(3,4-Dichloro-benzenesulfonylamino)-3-(1H-indol-3-yl)-2-methyl-N-(1-pyridin-2-yl-cyclohexylmethyl)-propionamide]
> 10 µM		C[C@@](Cc1c[nH]c2ccccc12)(NS(=O)(=O)c1ccc(C(F)(F)F)cc1)C(=O)NCC1(c2ccccn2)CCCCC1 [Example 127, (S)-3-(1H-Indol-3-yl)-2-methyl-N-(1-pyridin-2-yl-cyclohexylmethyl)-2-(4-trifluoromethyl-benzenesulfonylamino)-propionamide]
> 10 µM		C[C@@](Cc1c[nH]c2ccccc12)(NS(=O)(=O)c1ccc(Cl)s1)C(=O)NCC1(c2ccccn2)CCCCC1 [Example 128, (S)-2-(5-Chloro-thiophene-2-sulfonylamino)-3-(1H-indol-3-yl)-2-methyl-N-(1-pyridin-2-yl-cyclohexylmethyl)-propionamide]
> 10 µM		COc1ccc(S(=O)(=O)N[C@@](C)(Cc2c[nH]c3ccccc23)C(=O)NCC2(c3ccccn3)CCCCC2)cc1OC [Example 132, (S)-2-(3,4-Dimethoxy-benzenesulfonylamino)-3-(1H-indol-3-yl)-2-methyl-N-(1-pyridin-2-yl-cyclohexylmethyl)-propionamide]
> 10 µM		C[C@@](Cc1c[nH]c2ccccc12)(NS(=O)(=O)c1ccc(C#N)cc1)C(=O)NCC1(c2ccccn2)CCCCC1 [Example 133, (S)-2-(4-Cyano-benzenesulfonylamino)-3-(1H-indol-3-yl)-2-methyl-N-(1-pyridin-2-yl-cyclohexylmethyl)-propionamide]
> 10 µM		C[C@@](Cc1c[nH]c2ccccc12)(NS(=O)(=O)c1ccccc1C#N)C(=O)NCC1(c2ccccn2)CCCCC1 [Example 134, (S)-2-(2-Cyano-benzenesulfonylamino)-3-(1H-indol-3-yl)-2-methyl-N-(1-pyridin-2-yl-cyclohexylmethyl)-propionamide]
> 10 µM		Cc1nn(C)c(Cl)c1S(=O)(=O)N[C@@](C)(Cc1c[nH]c2ccccc12)C(=O)NCC1(c2ccccn2)CCCCC1 [Example 135, (S)-2-(5-Chloro-1,3-dimethyl-1H-pyrazole-4-sulfonylamino)-3-(1H-indol-3-yl)-2-methyl-N-(1-pyridin-2-yl-cyclohexylmethyl)-propionamide]
> 10 µM		Cc1noc(C)c1S(=O)(=O)N[C@@](C)(Cc1c[nH]c2ccccc12)C(=O)NCC1(c2ccccn2)CCCCC1 [Example 136, (S)-2-(3,5-Dimethyl-isoxazole-4-sulfonylamino)-3-(1H-indol-3-yl)-2-methyl-N-(1-pyridin-2-yl-cyclohexylmethyl)-propionamide]
> 10 µM		C[C@@](Cc1c[nH]c2ccccc12)(NS(=O)(=O)c1cccc2nsnc12)C(=O)NCC1(c2ccccn2)CCCCC1 [Example 137, (S)-2-(Benzo[1,2,5]thiadiazole-4-sulfonylamino)-3-(1H-indol-3-yl)-2-methyl-N-(1-pyridin-2-yl-cyclohexylmethyl)-propionamide]
> 10 µM		Cn1cnc(S(=O)(=O)N[C@@](C)(Cc2c[nH]c3ccccc23)C(=O)NCC2(c3ccccn3)CCCCC2)c1 [Example 138, (S)-3-(1H-Indol-3-yl)-2-methyl-2-(1-methyl-1H-imidazole-4-sulfonylamino)-N-(1-pyridin-2-yl-cyclohexylmethyl)-propionamide]
> 10 µM		C[C@@](Cc1c[nH]c2ccccc12)(NS(=O)(=O)c1cccc2nonc12)C(=O)NCC1(c2ccccn2)CCCCC1 [Example 139, (S)-2-(Benzo[1,2,5]oxadiazole-4-sulfonylamino)-3-(1H-indol-3-yl)-2-methyl-N-(1-pyridin-2-yl-cyclohexylmethyl)-propionamide]
> 10 µM		COC(=O)c1sccc1S(=O)(=O)N[C@@](C)(Cc1c[nH]c2ccccc12)C(=O)NCC1(c2ccccn2)CCCCC1 [Example 140, 3-{(S)-2-(1H-Indol-3-yl)-1-methyl-1-[(1-pyridin-2-yl-cyclohexylmethyl)-carbamoyl]-ethylsulfamoyl}-thiophene-2-carboxylic acid methyl ester]
> 10 µM		C[C@@](Cc1c[nH]c2ccccc12)(NS(=O)(=O)c1ccc(-c2ccon2)s1)C(=O)NCC1(c2ccccn2)CCCCC1 [Example 141, (S)-3-(1H-Indol-3-yl)-2-(5-isoxazol-3-yl-thiophene-2-sulfonylamino)-2-methyl-N-(1-pyridin-2-yl-cyclohexylmethyl)-propionamide]
> 10 µM		C[C@@](Cc1c[nH]c2ccccc12)(NS(=O)(=O)Cc1ccccc1[N+](=O)[O-])C(=O)NCC1(c2ccccn2)CCCCC1 [Example 142, (S)-3-(1H-Indol-3-yl)-2-methyl-2-(2-nitro-phenylmethanesulfonylamino)-N-(1-pyridin-2-yl-cyclohexylmethyl)-propionamide]
> 10 µM		C[C@@](Cc1c[nH]c2ccccc12)(NS(=O)(=O)c1cccc(C#N)c1)C(=O)NCC1(c2ccccn2)CCCCC1 [Example 143, (S)-2-(3-Cyano-benzenesulfonylamino)-3-(1H-indol-3-yl)-2-methyl-N-(1-pyridin-2-yl-cyclohexylmethyl)-propionamide]
